Test results from US20180286508A1, “DETERMINATION OF FAVORABLE DATE(S) FOR THERAPEUTIC TREATMENT DELIVERY” (Mayo Foundation for Medical Education and Research, priority 2015, published 2018).
Values joined by “and” are separate entries in the source; they are usually repeats but may differ in a detail not shown here. Equal values may be shown once.

Assays:
[1] = test system: patients with unresectable stage IV malignant melanoma; assay: Clinical trial of timed TMZ chemotherapy (timed on CRP oscillation) in stage IV melanoma patients; type: in vivo, human
From the text: In an example clinical trial described herein, the patient population included patients with unresectable stage IV malignant melanoma. Eligible patients had unresectable, histologically confirmed stage IV disease, age over 18 years, measurable disease as defined by the Response Evaluation Criteria in Solid Tumors (RECIST), Eastern Cooperative Oncology Group (ECOG) performance status (PS) of 0-2, and life expectancy ≥3 months. Both newly diagnosed, previously untreated patients, as well as patients who have had prior therapy for their metastatic disease were enrolled.
Treatment was initiated with temozolomide (TMZ) 150 mg/m^2 on days 1-5 on cycle 1 and the dose was increased to 200 mg/m^2 for all subsequent cycles if tolerated. Patients were treated every 4 weeks until progression, unacceptable toxicity or patient refusal. Prior to initiation of first chemotherapy cycle, eligible patients underwent peripheral blood testing for immunological biomarkers (immune variables) every 2-3 days for a period of two weeks. The blood samples were tested for a total of 52 variables; that is, 52 measurements of cytokine concentrations and cell counts in blood samples.
The time series of six CRP concentration measurements was fitted to a sine curve. The curve was then extrapolated for two periods and the next consecutive peaks of CRP concentration were predicted. Based on the periodicity of CRP oscillations, TMZ chemotherapy was initiated prior to the estimated time of the next CPR peak, or on day 14 post-registration if the peak could not be identified.
The purpose of the curve fitting analysis is to determine whether any of the measured immune variables change in a predictable fashion following a cyclical pattern (dynamic equilibrium of immunity and cancer). Therefore, the goal of the curve fitting analysis is to assess whether concentrations of plasma cytokines/chemokines and immune cells fluctuate, and if so, to determine whether these fluctuations follow a mathematically predictable cyclical pattern. To that end, the plasma levels for the 52 immune variables ([…] different cytokines/chemokines/growth factors and the percentage of 22 immune cell subsets) in serial blood samples collected every 2-3 days prior to initiation of TMZ therapy were measured in 10 patients with metastatic malignant melanoma. […] Technical reproducibility was assessed by the coefficient of variation among duplicates (average coefficient of variation was 5.13% for 1593 data points).

[2] = test system: patients with metastatic melanoma (stage IV); assay: Phase II clinical trial MC1076 of timed administration of TMZ; type: in vivo, human; settings: for number of patients with PFS >4 months: 17 patients
From the text: Eligible patients had unresectable, histologically confirmed stage IV disease, age over 18 years, measurable disease as defined by the Response Evaluation Criteria in Solid Tumors (RECIST), Eastern Cooperative Oncology Group (ECOG) performance status of 0-2, and life expectancy≥3 months (See Table 10). Both previously untreated patients and patients who have had prior therapy for their metastatic disease (excluding prior exposure to TMZ) were eligible. All patients provided signed informed written consent, and the study was approved by the Mayo Clinic Rochester Institutional Review Board. The TMZ dose was 150 mg/m2 on days 1-5 of cycle 1 and was increased to 200 mg/m2 on days 1-5 each month for all subsequent cycles if well tolerated. Patients were treated every 28 days until progression, unacceptable toxicity or patient refusal. Prior to initiation of first chemotherapy cycle, eligible patients underwent serial daily peripheral blood testing for 10 days of 69 immune biomarkers (42 cytokines, and 27 immune cell subtypes) per time point/patient. At the end of the sample collections, all data was jointly analyzed and a day for individualized TMZ delivery was calculated according to the proposed model (below). Patients received their therapy during the time, predicted by the model. All patients were followed for clinical outcomes.
Time-dependent profiles of blood concentration of IL-12p70, CD197/CD206, IL-1ra were built based on a series of pre-treatment measurements. The data was fitted to a sine curve and the extrapolated for a period of 10 days. Chemotherapy was initiated on the day when the extrapolated value of the combination of these immune parameters was at maximum.
The MC1076 study was designed to assess the anti-tumor activity of timed administration of TMZ. A two-stage phase II clinical trial design will be used to test the hypothesis that the 4 month PFS rate is at most 45% against the alternative hypothesis that the 4 month PFS rate is at least 65%. Progression-free survival was defined as the time from registration to documentation of disease progression or death without disease progression documented.
Analysis of infradian (multi-day) dynamics in systemic immunity of patients with metastatic melanoma. Based on data, both published and from our lab, we hypothesized that the anti-tumor systemic immune response in patients with cancer is not a static but a dynamic event. In order to study the global temporal behavior of systemic anti-tumor immunity, we conducted a phase II clinical trial (MC1076; NCT01328535). In this study, patients with metastatic melanoma underwent a period of immunological monitoring consisting of 10 daily PB collections (10 mL) over 12 days prior to initiation of therapy with TMZ. There was no blood collection on weekend days. At the end of the sample collection period, samples were batched analyzed (to minimize inter-assay variability for a given patient) for measurement of dynamic changes of plasma cytokines and immune cell subsets using established, standardized, and Good Laboratory Practice (GLP)-validated methodology in our laboratory.^35 Time-dependent profiles of immune variables (cytokines and immune cell subsets) were then analyzed and an optimal day for initiation of TMZ therapy was prospectively computed by the algorithm described below. […]

[3] = standard TMZ doses, 200 mg/m2 daily over 5 days, cycles every 28 days; cited from earlier work
[4] = test system: non proliferating peripheral blood lymphocytes; settings: therapeutical doses, in vitro; cited from earlier work
[5] = test system: CD8+ effector T-cells and dendritic cells (DCs); settings: therapeutical doses, in vitro; cited from earlier work
[6] = LMR <1 on the day of TMZ initiation
[7] = LMR >1 on the day of TMZ initiation

Cn1nnc2c(C(N)=O)ncn2c1=O [TMZ, temozolomide]
PFS ([1]; Table 4, one line per patient, 8 patients with metastatic cutaneous melanoma, TMZ 150 to 200 mg/m^2 days 1-5 every 4 weeks): 70 days and 68 days and 37 days and 916 days and 748 days and 132 days and 91 days and 77 days
PFS ([1]; Table 6, one line per patient, same 8 melanoma patients): 37 days and 91 days and 32 days and 77 days and 916 days and 841 days and 68 days and 70 days
average PFS ([1]; four patients with sum of ranks of IL12p70 and CD197/CD206 above 15): 68 days
average PFS ([1]; four patients with sum of ranks of IL12p70 and CD197/CD206 below 15): 466 days
PFS ([1]; two patients with disorganized (non-curve-fitting) anti-tumor immune responses): 71 days and 74 days
number of patients with PFS <4 months [2, 6]: 7
number of patients with PFS >4 months [2, 6]: 1
number of patients with PFS <4 months [2, 7]: 3
number of patients with PFS >4 months [2, 7]: 6
PFS ([2]; Table 11, one line per patient, 24 patients, time from registration to progression, CR = complete response): 644 days and 242 days and 184 days and 47 days and 83 days and 301 days and 136 days and 752 days and 102 days and 78 days and 39 days and 107 days and 72 days (2×) and 53 days and 48 days and 80 days and 73 days and 130 days and 77 days and 133 days and 198 days
serum concentrations [3]: up to 50 μM
impairment of non proliferating peripheral blood lymphocytes [4]: did not impair
impairment of the function of CD8+ effector T-cells and dendritic cells [5]: did not impair
